Where two headings read alike, the source gives them in different places.
What was measured:
Assay in all cases: Pemetrexed cytotoxicity test upon suppression of expression of MYT1
Type in all cases: cell-based
[1] = tested on: NCI-H292; conditions: Homo sapiens, NCI-H292 (RB1 wild-type), 7 days
Description: (§1) Thereafter, the plates were shaken to transfect each siRNA at a final concentration of 10 nM.
(§2) The −Log 2 value of fold change of IC50 and the maximum value of Bliss score, which are indexes of the combination effect, were calculated by comparing with the actually obtained cell survival curve, and described in Table 6 (see Non Patent Literature 9).

[2] = tested on: A549; conditions: Homo sapiens, A549 (RB1 wild-type), 7 days
Description: as §1, §2

[3] = tested on: NCI-H1666; conditions: Homo sapiens, NCI-H1666 (RB1 wild-type), 7 days
Description: as §1, §2

[4] = tested on: NCI-H358; conditions: Homo sapiens, NCI-H358 (RB1 wild-type), 7 days
Description: as §1, §2

[5] = tested on: NCI-H1993; conditions: Homo sapiens, NCI-H1993 (RB1 wild-type), 7 days
Description: as §1, §2

[6] = tested on: ChaGo-K-1; conditions: Homo sapiens, ChaGo-K-1 (RB1 mutant), 7 days
Description: as §1, §2

[7] = tested on: NCI-H596; conditions: Homo sapiens, NCI-H596 (RB1 mutant), 7 days
Description: as §1, §2

[8] = tested on: HOP-62; conditions: Homo sapiens, HOP-62 (RB1 wild-type), 7 days
Description: as §1, §2

[9] = tested on: LU65; conditions: Homo sapiens, LU65 (RB1 mutant), 7 days
Description: as §1, §2

[10] = tested on: NCI-H2122; conditions: Homo sapiens, NCI-H2122 (RB1 wild-type), 7 days
Description: as §1, §2

[11] = tested on: NCI-H441; conditions: Homo sapiens, NCI-H441 (RB1 wild-type), 7 days
Description: as §1, §2

[12] = tested on: NCI-H2110; conditions: NCI-H2110 (RB1 mutant), 7 days
Description: as §1, §2

[13] = tested on: NCI-H460; conditions: Homo sapiens, NCI-H460 (RB1 wild-type), 7 days
Description: as §1, §2

[14] = tested on: NCI-H1155; conditions: Homo sapiens, NCI-H1155 (RB1 mutant), 7 days
Description: as §1, §2

[15] = tested on: PC-9; conditions: Homo sapiens, PC-9 (RB1 wild-type), 7 days
Description: as §1, §2

[16] = tested on: NCI-H322; conditions: NCI-H322 (RB1 wild-type), 7 days
Description: as §1, §2

[17] = tested on: EKVX; conditions: Homo sapiens, EKVX (RB1 wild-type), 7 days
Description: as §1, §2

[18] = tested on: ABC-1; conditions: Homo sapiens, ABC-1 (RB1 wild-type), 7 days
Description: as §1, §2

[19] = read-out: IC50 of pemetrexed, MYT1 #16, MYT1 siRNA #16 10 nM
[20] = read-out: IC50 of pemetrexed, MYT1 #18, MYT1 siRNA #18 10 nM
[21] = read-out: IC50 of pemetrexed, NT, negative control siRNA 10 nM

Which IC50 [1, 19] does the source give for `Nc1nc2[nH]cc(CCc3ccc(C(=O)N[C@@H](CCC(=O)O)C(=O)O)cc3)c2c(=O)[nH]1` [pemetrexed] here?
The IC50 was 71.1 nM.

And the IC50 [1, 20]?
The IC50 was 187 nM.

And the IC50 [1, 21]?
The IC50 was 391 nM.

And the IC50 [2, 19]?
The IC50 was 1530 nM.

And the IC50 [2, 20]?
Its IC50 is 1950 nM.

And the IC50 [2, 21]?
Its IC50 is 2850 nM.

What about the IC50 [3, 19] of the same compound?
Its IC50 is 473 nM.

What about the IC50 [3, 20] of the same compound?
Its IC50 is 291 nM.

What about the IC50 [3, 21] of the same compound?
Its IC50 is 619 nM.

And the IC50 [4, 19]?
Its IC50 is 531 nM.

And the IC50 [4, 20]?
Its IC50 is 333 nM.

What about the IC50 [4, 21] of the same compound?
Its IC50 is 986 nM.

And the IC50 [5, 19]?
Its IC50 is 24.6 nM.

And the IC50 [5, 20]?
Its IC50 is 106 nM.

What about the IC50 [5, 21] of the same compound?
Its IC50 is 181 nM.

What about the IC50 [6, 19] of the same compound?
Its IC50 is 133 nM.

And the IC50 [6, 20]?
Its IC50 is 192 nM.

And the IC50 [6, 21]?
Its IC50 is 914 nM.

What about the IC50 [7, 19] of the same compound?
The IC50 was 7.01 nM.

And the IC50 [7, 20]?
The IC50 was 21 nM.

And the IC50 [7, 21]?
Its IC50 is 385 nM.

And the IC50 [8, 19]?
The IC50 was 98.1 nM.

What about the IC50 [8, 20] of the same compound?
The IC50 was 91.9 nM.

What about the IC50 [8, 21] of the same compound?
The IC50 was 175 nM.

What about the IC50 ([9]; Lu-65, read-out: IC50 of pemetrexed, MYT1 #16, MYT1 siRNA #16 10 nM) of the same compound?
The IC50 was 134 nM.

What about the IC50 ([9]; Lu-65, read-out: IC50 of pemetrexed, MYT1 #18, MYT1 siRNA #18 10 nM) of the same compound?
Its IC50 is 140 nM.

What about the IC50 ([9]; Lu-65, read-out: IC50 of pemetrexed, NT, negative control siRNA 10 nM) of the same compound?
The IC50 was 1070 nM.

What about the IC50 [10, 19] of the same compound?
The IC50 was 13.5 nM.

What about the IC50 [10, 20] of the same compound?
The IC50 was 47.2 nM.

What about the IC50 [10, 21] of the same compound?
The IC50 was 159 nM.

And the IC50 [11, 19]?
Its IC50 is 95.6 nM.

And the IC50 [11, 20]?
Its IC50 is 865 nM.

What about the IC50 [11, 21] of the same compound?
The IC50 was 884 nM.

And the IC50 [12, 19]?
Its IC50 is 10.5 nM.

What about the IC50 [12, 20] of the same compound?
The IC50 was 41.4 nM.

And the IC50 [12, 21]?
The IC50 was 227 nM.

And the IC50 [13, 19]?
Its IC50 is 465 nM.

What about the IC50 [13, 20] of the same compound?
The IC50 was 563 nM.

What about the IC50 [13, 21] of the same compound?
The IC50 was 667 nM.

And the IC50 [14, 19]?
Its IC50 is 673 nM.

And the IC50 [14, 20]?
The IC50 was 1650 nM.

And the IC50 [14, 21]?
Its IC50 is 9840 nM.

And the IC50 [15, 19]?
The IC50 was 32.9 nM.

What about the IC50 [15, 20] of the same compound?
The IC50 was 77.7 nM.

And the IC50 [15, 21]?
Its IC50 is 145 nM.

What about the IC50 [16, 19] of the same compound?
The IC50 was 1030 nM.

And the IC50 [16, 20]?
Its IC50 is 805 nM.

What about the IC50 [16, 21] of the same compound?
Its IC50 is 1600 nM.

What about the IC50 [17, 19] of the same compound?
Its IC50 is 166 nM.

And the IC50 [17, 20]?
Its IC50 is 263 nM.

What about the IC50 [17, 21] of the same compound?
Its IC50 is 404 nM.

What about the IC50 [18, 19] of the same compound?
Its IC50 is 363 nM.

What about the IC50 [18, 20] of the same compound?
The IC50 was 313 nM.

What about the IC50 [18, 21] of the same compound?
The IC50 was 973 nM.
